≈ marks a conversion by molar mass, not a printed value. Read-outs that look alike come from different tables or passages of the source.
How the values were obtained:
Format in all cases: cell-based
[1] = system: Enterobacter aerogeneus No. 75; assay: Minimum Inhibitory Concentration, Enterobacter aerogeneus No. 75
Experimental: (§1) anti-microbial activity tests were carried out on the compounds obtained in the Examples.

Escherichia coli NIHJ = assay: Minimum Inhibitory Concentration, Escherichia coli NIHJ; settings: for MIC: read-out: Minimum Inhibitory Concentration
Experimental: as §1

[2] = system: Klebsiella pneumoniae 602; assay: Minimum Inhibitory Concentration, Klebsiella pneumoniae 602
Experimental: as §1

Proteus vulgaris HX 19 = assay: Minimum Inhibitory Concentration, Proteus vulgaris HX 19
Experimental: as §1

[3] = system: Staphylococcus aureus FS 289; assay: Minimum Inhibitory Concentration, Staphylococcus aureus FS 289
Experimental: as §1
*Staphylococcus aureus FS 289: strain resistant to penicillin

Serratia No. 72 = assay: Minimum Inhibitory Concentration, Serratia No. 72
Experimental: as §1

[4] = system: Staphylococcus aureus 209 P; assay: Minimum Inhibitory Concentration, Staphylococcus aureus 209 P; settings: for MIC: read-out: Minimum Inhibitory Concentration
Experimental: as §1

[5] = system: Pseudomonas aeruginosa 104; assay: Minimum Inhibitory Concentration, Pseudomonas aeruginosa 104
Experimental: as §1

[6] = Enterobacter aerogeneus No. 75, read-out: Minimum Inhibitory Concentration
[7] = Klebsiella pneumoniae, 602, Klebsiella pneumoniae 602, read-out: Minimum Inhibitory Concentration
[8] = HX19, Proteus vulgaris HX 19, read-out: Minimum Inhibitory Concentration
[9] = FS289, Staphylococcus aureus FS 289, strain resistant to penicillin, read-out: Minimum Inhibitory Concentration
[10] = Pseudomonas aeruginosa 104, read-out: Minimum Inhibitory Concentration

Row | SMILES | MIC [1, 6] | MIC (Escherichia coli NIHJ; Escherichia coli NIHJ) | MIC [2, 7] | MIC (Proteus vulgaris HX 19; [8]) | MIC [3, 9] | MIC (Serratia No. 72) | MIC ([4]; Staphylococcus aureus 209 P) | MIC [5, 10] | other results
1 | CC(=O)OCC1=C(C(=O)O)N2C(=O)C(NC(=O)[C@H](NC(=O)c3nnc4ccccc4c3O)c3ccc(O)cc3)C2SC1 (stereo partly drawn) [Example 124, 7-[D-α-(4-hydroxycinnoline-3-carbonamido)-α-p-hydrxyphenylacetamido]cephalosporanic acid] | 25 µg/mL (≈ 42.1 µM) | 12.5 µg/mL (≈ 21.1 µM) | 12.5 µg/mL (≈ 21.1 µM) | 0.78 µg/mL (≈ 1.31 µM) | 6.25 µg/mL (≈ 10.5 µM) | 100 µg/mL (≈ 168 µM) | 0.78 µg/mL (≈ 1.31 µM) | 12.5 µg/mL (≈ 21.1 µM) | 
2 | CC(=O)OCC1=C(C(=O)O)N2C(=O)[C@@H](NC(=O)Cc3cccs3)[C@H]2SC1 [CET, reference compound] |  |  |  |  |  | > 200 µg/mL |  |  | MIC ([1]; Enterobacter, NO.75, read-out: Minimum Inhibitory Concentration): > 200 µg/mL; MIC (Escherichia coli NIHJ; Escherichia coli): 12.5 µg/mL (≈ 31.5 µM); MIC ([2]; Klebsiella pneumoniae, 602, read-out: Minimum Inhibitory Concentration): 0.78 µg/mL (≈ 1.97 µM); MIC (Proteus vulgaris HX 19; Proteus vulgaris, HX19, read-out: Minimum Inhibitory Concentration): 3.13 µg/mL (≈ 7.9 µM); MIC ([3]; Staphylococcus aureus, FS289, read-out: Minimum Inhibitory Concentration): 0.78 µg/mL (≈ 1.97 µM); MIC ([4]; Staphylococcus aureus, 209P): 0.1 µg/mL (≈ 0.252 µM); MIC ([5]; Pseudomonas aeruginosa, 104, read-out: Minimum Inhibitory Concentration): > 200 µg/mL
3 | CC(=O)OCC1=C(C(=O)O)N2C(=O)[C@@H](NC(=O)[C@H](NC(=O)c3cnc4nc(C)c(C)nc4c3O)c3ccc(NC(N)=O)cc3)[C@H]2SC1 [Example 35] | 25 µg/mL (≈ 37.6 µM) | 6.25 µg/mL (≈ 9.4 µM) | 3.13 µg/mL (≈ 4.71 µM) | 0.39 µg/mL (≈ 0.587 µM) | 6.25 µg/mL (≈ 9.4 µM) | 50 µg/mL (≈ 75.2 µM) | 1.56 µg/mL (≈ 2.35 µM) | 6.25 µg/mL (≈ 9.4 µM) | 
4 | CC(=O)OCC1=C(C(=O)O)N2C(=O)C(NC(=O)[C@H](NC(=O)c3cnccc3O)c3cccc(N)c3)C2SC1 (stereo partly drawn) [Example 51, 7-[D-α-(4-Hydroxypyridine-3-carbonamide)-α -m-aminophenylacetamido]cephalosporanic acid] | 25 µg/mL (≈ 46.2 µM) | 12.5 µg/mL (≈ 23.1 µM) | 12.5 µg/mL (≈ 23.1 µM) | 0.2 µg/mL (≈ 0.369 µM) | 3.13 µg/mL (≈ 5.78 µM) | > 200 µg/mL | 0.39 µg/mL (≈ 0.72 µM) | 6.25 µg/mL (≈ 11.5 µM) | 
5 | Nc1cccc(C(NC(=O)c2cnccc2O)C(=O)NC2C(=O)N3C(C(=O)O)=C(CSc4nnc(CO)s4)CSC23)c1 (stereo not drawn) [Example 84] |  |  |  |  |  |  |  |  | Minimum Inhibitory Concentration ([1]; Enterobacter aerogeneus No. 75): 12.5 µg/mL; Minimum Inhibitory Concentration (Escherichia coli NIHJ; Escherichia coli NIHJ): 6.25 µg/mL; Minimum Inhibitory Concentration ([2]; Klebsiella pneumoniae 602): 3.13 µg/mL; Minimum Inhibitory Concentration (Proteus vulgaris HX 19; Proteus vulgaris HX 19): 0.2 µg/mL; Minimum Inhibitory Concentration ([3]; Staphylococcus aureus FS 289, strain resistant to penicillin): 6.25 µg/mL; Minimum Inhibitory Concentration (Serratia No. 72): 50 µg/mL; Minimum Inhibitory Concentration ([4]; Staphylococcus aureus 209 P): 0.39 µg/mL; Minimum Inhibitory Concentration ([5]; Pseudomonas aeruginosa 104): 6.25 µg/mL
6 | COc1cnc2c(O)c(C(=O)N[C@@H](C(=O)N[C@@H]3C(=O)N4C(C(=O)O)=C(COC(C)=O)CS[C@H]34)c3cccc(NC(N)=O)c3)cnc2n1 [Example 31] | 25 µg/mL (≈ 37.5 µM) | 3.13 µg/mL (≈ 4.7 µM) | 3.13 µg/mL (≈ 4.7 µM) | 0.39 µg/mL (≈ 0.585 µM) | 6.25 µg/mL (≈ 9.38 µM) | 50 µg/mL (≈ 75 µM) | 0.78 µg/mL (≈ 1.17 µM) | 6.25 µg/mL (≈ 9.38 µM) | 

More lines, in order of falling MIC [1, 6], values ahead:

Row | MIC [1, 6] | MIC (Escherichia coli NIHJ; Escherichia coli NIHJ) | MIC [2, 7] | MIC (Proteus vulgaris HX 19; [8]) | MIC [3, 9] | MIC (Serratia No. 72) | MIC ([4]; Staphylococcus aureus 209 P) | MIC [5, 10] | SMILES | other results
7 | 12.5 µg/mL (≈ 20 µM) | 6.25 µg/mL (≈ 9.99 µM) | 6.25 µg/mL (≈ 9.99 µM) | 0.1 µg/mL (≈ 0.16 µM) | 6.25 µg/mL (≈ 9.99 µM) | 50 µg/mL (≈ 79.9 µM) | 0.39 µg/mL (≈ 0.623 µM) | 6.25 µg/mL (≈ 9.99 µM) | NC(=O)Nc1ccc([C@@H](NC(=O)c2cnccc2O)C(=O)N[C@@H]2C(=O)N3C(C(=O)O)=C(CSc4cnn[nH]4)CS[C@H]23)cc1 [Example 14] | 
8 | 12.5 µg/mL (≈ 19.2 µM) | 12.5 µg/mL (≈ 19.2 µM) | 3.13 µg/mL (≈ 4.8 µM) | 0.39 µg/mL (≈ 0.598 µM) | 6.25 µg/mL (≈ 9.58 µM) | 50 µg/mL (≈ 76.6 µM) | 0.78 µg/mL (≈ 1.2 µM) | 12.5 µg/mL (≈ 19.2 µM) | NC(=O)Nc1cccc(C(NC(=O)c2cnccc2O)C(=O)NC2C(=O)N3C(C(=O)O)=C(CSc4ccc(O)nn4)CSC23)c1 (stereo not drawn) [Example 46] | 
9 | 12.5 µg/mL (≈ 20 µM) | 12.5 µg/mL (≈ 20 µM) | 6.25 µg/mL (≈ 10 µM) | 0.39 µg/mL (≈ 0.624 µM) | 6.25 µg/mL (≈ 10 µM) | 100 µg/mL (≈ 160 µM) | 0.78 µg/mL (≈ 1.25 µM) | 12.5 µg/mL (≈ 20 µM) | O=C(O)C1=C(CSc2ccc(O)nn2)CSC2C(NC(=O)C(NC(=O)c3cnccc3O)c3ccc(CO)cc3)C(=O)N12 (stereo not drawn) [Example 111] | 
10 | 12.5 µg/mL (≈ 20.9 µM) | 6.25 µg/mL (≈ 10.4 µM) | 6.25 µg/mL (≈ 10.4 µM) | 0.1 µg/mL (≈ 0.167 µM) | 6.25 µg/mL (≈ 10.4 µM) | 50 µg/mL (≈ 83.5 µM) | 0.39 µg/mL (≈ 0.651 µM) | 6.25 µg/mL (≈ 10.4 µM) | Cn1nnnc1SCC1=C(C(=O)O)N2C(=O)C(NC(=O)C(NC(=O)c3ccnnc3O)c3cccc(N)c3)C2SC1 (stereo not drawn) [Example 60] | 
11 | 6.25 µg/mL (≈ 9.4 µM) | 3.13 µg/mL (≈ 4.71 µM) | 3.13 µg/mL (≈ 4.71 µM) | 0.2 µg/mL (≈ 0.301 µM) | 12.5 µg/mL (≈ 18.8 µM) | 25 µg/mL (≈ 37.6 µM) | 1.56 µg/mL (≈ 2.35 µM) | 6.25 µg/mL (≈ 9.4 µM) | Cn1nnnc1SCC1=C(C(=O)O)N2C(=O)C(NC(=O)C(NC(=O)c3cnc4cncnc4c3O)c3ccc(CO)cc3)C2SC1 (stereo not drawn) [Example 108] | 
12 | 3.13 µg/mL (≈ 4.7 µM) | 1.56 µg/mL (≈ 2.34 µM) | 1.56 µg/mL (≈ 2.34 µM) | 0.1 µg/mL (≈ 0.15 µM) | 3.13 µg/mL (≈ 4.7 µM) | 12.5 µg/mL (≈ 18.8 µM) | 0.78 µg/mL (≈ 1.17 µM) | 3.13 µg/mL (≈ 4.7 µM) | Cc1nnc(SCC2=C(C(=O)O)N3C(=O)C(NC(=O)[C@H](NC(=O)c4cnc5cccnc5c4O)c4ccc(O)cc4)C3SC2)s1 (stereo partly drawn) [Example 129] | 
